Assay [1] deals with WT 5-12 G-quadruplex. In words: CD kinetics, temperature-jump, WT. Format: biochemical, human. Particulars: 2 equiv. Here is the method: FIGS. 10A and 10B are a set of graphs showing (A) comparison of kinetics of initial folding rate of the WT 5-12 G-quadruplex with GTC365 and BRACO-19 by the temperature-jump method. (B) Enhanced initial folding rate of the 5-12 G-quadruplexes carrying different hTERT mutants by GTC365. The time-course CD signal of preheated oligo with compound or DMSO in a buffer containing 10 mM Tris-HCl (pH 7.5) and 5 mM KCl was monitored at 262 nm and 25° C.
For the kinetics analysis using the temperature-jump method, theoligo in a buffer containing 10 mM Tris-HCl (pH 7.5) was heated forl min at 95° C., and then a mixture of KCl and compound was addedand incubated for 1 min. Meanwhile, the CD cuvette was also heatedat 95° C. As soon as the sample in the CD cuvette at the hightemperature was placed in the CD chamber, a time-dependent CDsignal at 262 nm was recorded immediately. The initial folding ratewas determined by one-phase association curve fitting (eq 1) of thekinetics curve using GraphPad Prism 5: Y=Y0+(Plateau−Y0)*(1−e^−kx) (1) where Y is the CD signal at any time point x, Y0 is the Y value whentime (x) is zero, plateau is the Y value at infinite time, and k is the rateconstant.
To evaluate the comparative effects of GTC365 relative to BRACO-19 on the cooperative folding process, we carried out two different experiments. First, we compared the distribution of the different populations of small and large species using single-molecule experiments as described previously withGTC365 and BRACO-19 in the G138/139A mutant. Similar to the G124/125A mutant, the population of fully folded structures is small in the G138/139A mutant without addition of ligand. […] We then used a temperature-jump method84to compare the initial folding rate of the 5-12 WT G-quadruplex with GTC365 and BRACO-19 using a time-course CD signal curve. […] GTC365 alsoincreased the initial folding rates of G124A, G124/125A, andG146A in a dose-dependent manner by 0.049, 0.042, and 0.054s^−1 at 2 equiv, whereas the effect on the G138/139A mutant was insignificant (FIG. 10B). […]

Assay [2] relates to BCL2 mRNA. Briefly: qPCR of BCL2 mRNA in MCF7 cells. It counts as cell-based, human. Particulars: 72 h. As to the method: qPCR. MCF7 and melanoma cells were treated with GTC365 and BRACO-19 for 72 h. Total RNA was extracted using an RNeasy mini-prep kit (Qiagen) and quantitated by measuring absorbance at 260 nm. cDNA was synthesized using a Takara PrimeScript™ RT Reagent Kit with gDNA eraser and then used as a template for qPCR. The qPCR was performed using Kapa Probe Fast qPCR Master Mix with ABI Taqman probes of hTERT (Hs00972656_m1), BCL2 (HS00608023_m1, FAM-labeled) or MYC (Hs00153408_m1), and GAPDH (Hs02758991_g1, VIC-labeled). The Ct values were measured by running Rotor-Gene Q, and the relative quantity of hTERT, BCL2, and MYC mRNA was obtained compared to GAPDH as an internal control.
BCL2 is a downstream molecule to hTERT such that BCL2 expression is activated by hTERT to repress apoptosis. To further define the effect of GTC365 on the transcription of hTERT, the relative mRNA levels of MYC and BCL2 were determined by quantitative PCR analysis in MCF7 cells after treatment with GTC365 for 72 h. […] A series of GTC260 analogs were synthesized and their effect on hTERT gene expression in MCF7A and U87 cells determined (FIG. 7). […] Therefore, GTC365 directly repressed the transcription of hTERT and then led to a downstream decrease of BCL2 expression.
For orientation: Real-time PCR tracks product formation cycle by cycle.

Each structure is given as a SMILES string.

Experimental findings from US10556860B2, “hTERT modulators and methods of use” (Arizona Board of Regents on Behalf of the University of …, priority 2015, dated 2020) are described below.

Take `CN(C)c1ccc(Nc2c3ccc(NC(=O)CCN4CCCC4)cc3nc3cc(NC(=O)CCN4CCCC4)ccc23)cc1` [BRACO-19, reference compound]: the “increase of initial folding rate” value in assay [1] was determined as 0.017 s⁻¹. In addition, the “effect on BCL2 mRNA level” value in assay [2] is reported as “no significant effect”.

Consider `N=C(N)NCCCS(=O)(=O)Nc1ccc(Nc2c3ccccc3nc3cc([N+](=O)[O-])ccc23)cc1` [GTC365], for which, in assay [1], the “increase of initial folding rate” value was 0.042 s⁻¹. Besides, the initial folding rate in assay [1] (without compound 0.051, 5 mM KCl, 25° C.) was 0.093 s⁻¹. Besides, the “decrease of BCL2 mRNA level” value in assay [2] (1 μM) is given as “up to 18%”.
